{"source": "patent US9226506B2", "about": "“Methods of weed control in chicory” (Dow AgroSciences LLC, priority 2013, dated 2016)", "key": {"[1]": {"tested_on": "chicory (varieties Ecrine, Hermès)", "experiment": "Chicory leaf development after post-emergence applications", "parameters": "species or system Cichorium intybus", "details": "in vivo", "protocol": "Field trials were conducted in Northern France and Belgium, both of which are major areas for root chicory and whitloof chicory production. Trials were conducted in accordance with EPPO standard PP 1/99(3) entitled “Weeds in Roots Vegetables,” PP 1/152(4) entitled “Design and Analysis of Efficacy Evaluation Trials,” PP 1/135(3) entitled “Phytotoxic Assessment,” and PP 1/181(4) entitled “Conduct and Reporting of Efficacy Evaluation Trials Including Good Experimental Practice,” all of which are incorporated herein by reference in their entirety.\nApplication to all field trials was made using a small plot precision sprayer operating at between 160-400 kilopascals (kPa) pressure, delivering a spray volume of 150-400 liters per hectare (L/ha). Nozzles were of a flat fan type. Trial plot size ranged from 4.5×2.5 square meters (m^2) to 10.5×2.5 m^2. Plots were replicated 3 or 4 times and were arranged in a randomized block design within each trial. […]\nIn whitloof chicory (Cichorium intybus), treatments were evaluated which included either two or three post-emergence applications of herbicide. Multiple applications of herbicide were evaluated for their ability to control weed emergence during the extended period of time required for chicory cultivation. […]"}, "[2]": {"tested_on": "chicory (varieties Ecrine, Hermès)", "experiment": "Yield of chicons after forcing", "assay_type": "in vivo, Cichorium intybus", "details": "171 DAAC and 21 days after start of forcing; for Yield of Chicons, Brut, Average / Yield of Chicons, Brut, Ecrine / Yield of Chicons, Brut, Hermès: total weight of chicons; for Yield of Chicons, Brut, Average: average of both varieties; for Yield of Chicons, Extra + 1, Ecrine / Yield of Chicons, Extra + 1, Hermès: weight of Extra and First Class chicons; for Yield of Chicons, Net, Ecrine / Yield of Chicons, Net, Hermès: weight of marketable chicons", "protocol": "Trials were also performed to investigate the effect of post-emergence applications of penoxsulam or SAFARI® (triflusulfuron-methyl) on the yield of chicons in two different varieties of chicory. The trial was carried out on plots measuring 3×5 meters. Two varieties of chicory (Hermes and Ecrine) were sown. Treatments were carried out, as described above (a) 18 days after sowing, (b) 25 days after sowing, and (c) 32 days after sowing. Trial assessments were carried out 21 DAAC and 46 DAAC on the number of plants per linear meter, and on their development stage (number of leaves per plant).\nHarvest was carried out 171 DAAC on 4 rows per plot. After harvest, the roots were counted and weighted, and the percent of roots usable for forcing was measured. The roots were then stored in a conservation room for 21 days until start of forcing phase. After 21 days of forcing, the chicons produced were weighed and classified in the commercial quality categories. The brut yield (total weight of chicons produced; marketable+non-marketable), net yield (weight of marketable chicons produced) and best class yield (Extra+1=weight of Extra and First Class chicons produced) were measured (in kilograms per 10 square meters (kg/10 m^2))."}}}
{"smiles": "COc1cnc(OC)n2nc(NS(=O)(=O)c3c(OCC(F)F)cccc3C(F)(F)F)nc12", "note": "[Penoxsulam]", "values": [{"measurement": "Average number of leaves (measured 21 DAAC) Average", "setting": "[1]", "value": 7, "unit": "a"}, {"measurement": "Yield of Chicons, Brut, Average", "setting": "[2]; 5/5/5 g ai/ha", "value": 40.7, "unit": "Kg/10 m^2"}, {"measurement": "Yield of Chicons, Brut, Average", "setting": "[2]; 7.5/7.5/7.5 g ai/ha", "value": 40.8, "unit": "Kg/10 m^2"}, {"measurement": "Yield of Chicons, Brut, Average", "setting": "[2]; 7.5/7.5 g ai/ha", "value": 39.6, "unit": "Kg/10 m^2"}, {"measurement": "Yield of Chicons, Brut, Average", "setting": "[2]; 10/10/10 g ai/ha", "value": 45.1, "unit": "Kg/10 m^2"}, {"measurement": "Yield of Chicons, Brut, Average", "setting": "[2]; 11.2/11.2 g ai/ha", "value": 39.9, "unit": "Kg/10 m^2"}, {"measurement": "Yield of Chicons, Brut, Average", "setting": "[2]; 15/15 g ai/ha", "value": 39.9, "unit": "Kg/10 m^2"}, {"measurement": "Yield of Chicons, Brut, Ecrine", "setting": "[2]; 5/5/5 g ai/ha", "value": 47.5, "unit": "Kg/10 m^2"}, {"measurement": "Yield of Chicons, Brut, Hermès", "setting": "[2]; 5/5/5 g ai/ha", "value": 33.8, "unit": "Kg/10 m^2"}, {"measurement": "Yield of Chicons, Brut, Ecrine", "setting": "[2]; 7.5/7.5/7.5 g ai/ha", "value": 45.1, "unit": "Kg/10 m^2"}, {"measurement": "Yield of Chicons, Brut, Hermès", "setting": "[2]; 7.5/7.5/7.5 g ai/ha", "value": 36.5, "unit": "Kg/10 m^2"}, {"measurement": "Yield of Chicons, Brut, Ecrine", "setting": "[2]; 7.5/7.5 g ai/ha", "value": 42.4, "unit": "Kg/10 m^2"}, {"measurement": "Yield of Chicons, Brut, Hermès", "setting": "[2]; 7.5/7.5 g ai/ha", "value": 36.7, "unit": "Kg/10 m^2"}, {"measurement": "Yield of Chicons, Brut, Ecrine", "setting": "[2]; 10/10/10 g ai/ha", "value": 50.7, "unit": "Kg/10 m^2"}, {"measurement": "Yield of Chicons, Brut, Hermès", "setting": "[2]; 10/10/10 g ai/ha", "value": 39.4, "unit": "Kg/10 m^2"}, {"measurement": "Yield of Chicons, Brut, Ecrine", "setting": "[2]; 11.2/11.2 g ai/ha", "value": 42.8, "unit": "Kg/10 m^2"}, {"measurement": "Yield of Chicons, Brut, Hermès", "setting": "[2]; 11.2/11.2 g ai/ha", "value": 37, "unit": "Kg/10 m^2"}, {"measurement": "Yield of Chicons, Brut, Ecrine", "setting": "[2]; 15/15 g ai/ha", "value": 46.4, "unit": "Kg/10 m^2"}, {"measurement": "Yield of Chicons, Brut, Hermès", "setting": "[2]; 15/15 g ai/ha", "value": 33.4, "unit": "Kg/10 m^2"}, {"measurement": "Yield of Chicons, Extra + 1, Ecrine", "setting": "[2]; 5/5/5 g ai/ha", "value": 29, "unit": "Kg/10 m^2"}, {"measurement": "Yield of Chicons, Extra + 1, Hermès", "setting": "[2]; 5/5/5 g ai/ha", "value": 17.7, "unit": "Kg/10 m^2"}, {"measurement": "Yield of Chicons, Extra + 1, Ecrine", "setting": "[2]; 7.5/7.5/7.5 g ai/ha", "value": 27.2, "unit": "Kg/10 m^2"}, {"measurement": "Yield of Chicons, Extra + 1, Hermès", "setting": "[2]; 7.5/7.5/7.5 g ai/ha", "value": 18.6, "unit": "Kg/10 m^2"}, {"measurement": "Yield of Chicons, Extra + 1, Ecrine", "setting": "[2]; 7.5/7.5 g ai/ha", "value": 28.2, "unit": "Kg/10 m^2"}, {"measurement": "Yield of Chicons, Extra + 1, Hermès", "setting": "[2]; 7.5/7.5 g ai/ha", "value": 21.1, "unit": "Kg/10 m^2"}, {"measurement": "Yield of Chicons, Extra + 1, Ecrine", "setting": "[2]; 10/10/10 g ai/ha", "value": 29.5, "unit": "Kg/10 m^2"}, {"measurement": "Yield of Chicons, Extra + 1, Hermès", "setting": "[2]; 10/10/10 g ai/ha", "value": 19.2, "unit": "Kg/10 m^2"}, {"measurement": "Yield of Chicons, Extra + 1, Ecrine", "setting": "[2]; 11.2/11.2 g ai/ha", "value": 25, "unit": "Kg/10 m^2"}, {"measurement": "Yield of Chicons, Extra + 1, Hermès", "setting": "[2]; 11.2/11.2 g ai/ha", "value": 22.8, "unit": "Kg/10 m^2"}, {"measurement": "Yield of Chicons, Extra + 1, Ecrine", "setting": "[2]; 15/15 g ai/ha", "value": 30.7, "unit": "Kg/10 m^2"}, {"measurement": "Yield of Chicons, Extra + 1, Hermès", "setting": "[2]; 15/15 g ai/ha", "value": 16.1, "unit": "Kg/10 m^2"}, {"measurement": "Yield of Chicons, Net, Ecrine", "setting": "[2]; 5/5/5 g ai/ha", "value": 36.4, "unit": "Kg/10 m^2"}, {"measurement": "Yield of Chicons, Net, Hermès", "setting": "[2]; 5/5/5 g ai/ha", "value": 25.6, "unit": "Kg/10 m^2"}, {"measurement": "Yield of Chicons, Net, Ecrine", "setting": "[2]; 7.5/7.5/7.5 g ai/ha", "value": 34.6, "unit": "Kg/10 m^2"}, {"measurement": "Yield of Chicons, Net, Hermès", "setting": "[2]; 7.5/7.5/7.5 g ai/ha", "value": 25.7, "unit": "Kg/10 m^2"}, {"measurement": "Yield of Chicons, Net, Ecrine", "setting": "[2]; 7.5/7.5 g ai/ha", "value": 33.9, "unit": "Kg/10 m^2"}, {"measurement": "Yield of Chicons, Net, Hermès", "setting": "[2]; 7.5/7.5 g ai/ha", "value": 26.6, "unit": "Kg/10 m^2"}, {"measurement": "Yield of Chicons, Net, Ecrine", "setting": "[2]; 10/10/10 g ai/ha", "value": 38.7, "unit": "Kg/10 m^2"}, {"measurement": "Yield of Chicons, Net, Hermès", "setting": "[2]; 10/10/10 g ai/ha", "value": 27.7, "unit": "Kg/10 m^2"}, {"measurement": "Yield of Chicons, Net, Ecrine", "setting": "[2]; 11.2/11.2 g ai/ha", "value": 33.2, "unit": "Kg/10 m^2"}, {"measurement": "Yield of Chicons, Net, Hermès", "setting": "[2]; 11.2/11.2 g ai/ha", "value": 28.6, "unit": "Kg/10 m^2"}, {"measurement": "Yield of Chicons, Net, Ecrine", "setting": "[2]; 15/15 g ai/ha", "value": 37.4, "unit": "Kg/10 m^2"}, {"measurement": "Yield of Chicons, Net, Hermès", "setting": "[2]; 15/15 g ai/ha", "value": 22.5, "unit": "Kg/10 m^2"}]}
